{"source": "paper PMC4992173", "about": "“Divergent synthesis and identification of the cellular targets of deoxyelephantopins” (Nature Communications, 2016)", "biological_target": "T1, Protein transport protein Sec24C (SEC24C) (Homo sapiens, UniProt P53992)", "T1 construct": "endogenous in cells; host or cells: MCF7", "T1 sequence (P53992 whole entry)": "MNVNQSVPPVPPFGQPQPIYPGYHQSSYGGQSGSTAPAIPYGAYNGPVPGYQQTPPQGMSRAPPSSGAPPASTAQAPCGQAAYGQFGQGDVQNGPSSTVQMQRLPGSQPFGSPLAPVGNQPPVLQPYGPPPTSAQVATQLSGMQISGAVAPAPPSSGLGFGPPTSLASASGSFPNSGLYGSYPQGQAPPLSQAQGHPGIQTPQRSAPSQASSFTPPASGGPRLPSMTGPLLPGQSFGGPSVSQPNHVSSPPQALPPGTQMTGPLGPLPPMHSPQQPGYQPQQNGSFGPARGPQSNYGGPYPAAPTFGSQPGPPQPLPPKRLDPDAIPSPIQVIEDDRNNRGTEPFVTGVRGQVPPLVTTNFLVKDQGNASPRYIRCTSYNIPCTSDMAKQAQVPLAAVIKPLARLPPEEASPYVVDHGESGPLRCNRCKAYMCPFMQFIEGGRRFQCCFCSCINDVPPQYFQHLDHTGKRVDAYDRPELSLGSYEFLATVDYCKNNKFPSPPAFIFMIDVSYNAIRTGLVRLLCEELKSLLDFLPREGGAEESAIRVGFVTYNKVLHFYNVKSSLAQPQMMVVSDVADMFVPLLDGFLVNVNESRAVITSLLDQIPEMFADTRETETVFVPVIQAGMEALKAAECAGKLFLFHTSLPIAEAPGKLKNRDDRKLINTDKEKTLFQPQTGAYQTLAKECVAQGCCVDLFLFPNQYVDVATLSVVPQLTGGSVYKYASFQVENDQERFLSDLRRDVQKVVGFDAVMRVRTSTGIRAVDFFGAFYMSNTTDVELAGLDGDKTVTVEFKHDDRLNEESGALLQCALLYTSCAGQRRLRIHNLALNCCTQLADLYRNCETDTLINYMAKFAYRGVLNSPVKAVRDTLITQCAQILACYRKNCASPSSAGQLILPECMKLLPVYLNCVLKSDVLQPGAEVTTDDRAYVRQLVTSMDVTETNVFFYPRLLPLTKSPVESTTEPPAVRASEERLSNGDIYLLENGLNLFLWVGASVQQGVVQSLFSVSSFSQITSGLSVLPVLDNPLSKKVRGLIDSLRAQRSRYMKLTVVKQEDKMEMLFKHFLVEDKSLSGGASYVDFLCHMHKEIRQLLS", "experiment": "In situ competitive profiling in live MCF7 cells (LFQ): SEC24C", "type": "cell-based", "conditions": "4 h, then 10 µM 24c, n=4", "from_the_text": "In our efforts to determine the direct molecular targets of deoxyelephantopin we first performed a gel-based competitive in situ proteomic profiling assay[41] […] While the greater conformational flexibility of probe 24c could potentially lead to more promiscuous target engagement relatively to deoxyelephantopin, it was favoured based on the fact that an alkyne moiety appended to the rigid scaffold of deoxyelephantopin may hinder some of its interactions. MCF7 cells were pretreated with various concentrations of deoxyelephantopin for 4 h, harvested, lysed and the lysates were treated with the fluorogenic probe 24c-Cy3 (10 μM; Supplementary Fig. 10). […] Furthermore, cells were pretreated with 20 μM concentration of deoxyelephantopin or 24c and the proteomic profiles were compared (Fig. 6b, Supplementary Fig. 11). Multiple bands were detected that were equally competed by both DEP and 24c, thus again confirming that 24c can be used as an acceptable clickable analogue of deoxyelephantopin in pulldown assays. Having established the optimal labelling conditions by SDS–PAGE, we next carried out a mass spectrometry-based competitive profiling assay[42] coupled with the method of stable isotope labelling of amino acids in culture (SILAC)[43]. […]\nFigure 6 Proteome-wide identification of deoxyelephantopin targets. […] Quantification was performed using label-free quantification (LFQ) method (n=4). […]"}
{"smiles": "C=C(C)C(=O)O[C@H]1CC2=C[C@@H](C/C(C)=C/[C@H]3OC(=O)C(=C)[C@H]13)OC2=O", "note": "[deoxyelephantopin]", "values": [{"measurement": "LFQ ratio 20 µM Deoxyelephantopin/DMSO with 24c", "value": 0.18}]}
